For `CC(=O)c1cnccn1`, the solubility (mole fraction) (in DMF, 268.35 K) was 0.0822, the solubility (mole fraction) (in DMF, 273.15 K) was 0.0972 and the solubility (mole fraction) (in DMF, 278.15 K) was 0.116. The solubility (mole fraction) (in DMF, 283.21 K) was 0.139, the solubility (mole fraction) (in DMF, 288.15 K) was 0.165 and the solubility (mole fraction) (in DMF, 293.05 K) was 0.194. It also gave a solubility (mole fraction) (in DMF, 298.15 K) of 0.23, a solubility (mole fraction) (in DMF, 303.15 K) of 0.269 and a solubility (mole fraction) (in DMF, 308.35 K) of 0.314. The solubility (mole fraction) (in NMP, 268.35 K) was 0.117, the solubility (mole fraction) (in NMP, 273.15 K) was 0.129 and the solubility (mole fraction) (in NMP, 278.15 K) was 0.15. For the same molecule, the solubility (mole fraction) (in NMP, 283.21 K) was 0.174, the solubility (mole fraction) (in NMP, 288.15 K) was 0.203 and the solubility (mole fraction) (in NMP, 293.05 K) was 0.234. It also gave a solubility (mole fraction) (in NMP, 298.15 K) of 0.271, a solubility (mole fraction) (in NMP, 303.15 K) of 0.31 and a solubility (mole fraction) (in NMP, 308.35 K) of 0.355. The solubility (mole fraction) (in acetone, 268.35 K) was 0.0511, the solubility (mole fraction) (in acetone, 273.15 K) was 0.0601 and the solubility (mole fraction) (in acetone, 278.15 K) was 0.0727. The solubility (mole fraction) (in acetone, 283.21 K) was 0.0826, the solubility (mole fraction) (in acetone, 288.15 K) was 0.0977 and the solubility (mole fraction) (in acetone, 293.05 K) was 0.119. The solubility (mole fraction) (in acetone, 298.15 K) was 0.137, the solubility (mole fraction) (in acetone, 303.15 K) was 0.153 and the solubility (mole fraction) (in acetone, 308.35 K) was 0.174. The solubility (mole fraction) (in ethanol, 268.35 K) was 0.0073, the solubility (mole fraction) (in ethanol, 273.15 K) was 0.0111 and the solubility (mole fraction) (in ethanol, 278.15 K) was 0.0136. For the same molecule, the solubility (mole fraction) (in ethanol, 283.21 K) was 0.0178, the solubility (mole fraction) (in ethanol, 288.15 K) was 0.0231 and the solubility (mole fraction) (in ethanol, 293.05 K) was 0.0347. It also gave a solubility (mole fraction) (in ethanol, 298.15 K) of 0.0433, a solubility (mole fraction) (in ethanol, 303.15 K) of 0.0542 and a solubility (mole fraction) (in ethanol, 308.35 K) of 0.0727. For the same molecule, the solubility (mole fraction) (in ethyl acetate, 268.35 K) was 0.0636, the solubility (mole fraction) (in ethyl acetate, 273.15 K) was 0.0746 and the solubility (mole fraction) (in ethyl acetate, 278.15 K) was 0.0889. It also gave a solubility (mole fraction) (in ethyl acetate, 283.21 K) of 0.101, a solubility (mole fraction) (in ethyl acetate, 288.15 K) of 0.116 and a solubility (mole fraction) (in ethyl acetate, 293.05 K) of 0.144. It also gave a solubility (mole fraction) (in ethyl acetate, 298.15 K) of 0.164, a solubility (mole fraction) (in ethyl acetate, 303.15 K) of 0.186 and a solubility (mole fraction) (in ethyl acetate, 308.35 K) of 0.209. For the same molecule, the solubility (mole fraction) (in isopropanol, 268.35 K) was 0.0052, the solubility (mole fraction) (in isopropanol, 273.15 K) was 0.0075 and the solubility (mole fraction) (in isopropanol, 278.15 K) was 0.0106. The solubility (mole fraction) (in isopropanol, 283.21 K) was 0.0128, the solubility (mole fraction) (in isopropanol, 288.15 K) was 0.0195 and the solubility (mole fraction) (in isopropanol, 293.05 K) was 0.0299. It also gave a solubility (mole fraction) (in isopropanol, 298.15 K) of 0.0382, a solubility (mole fraction) (in isopropanol, 303.15 K) of 0.0509 and a solubility (mole fraction) (in isopropanol, 308.35 K) of 0.0698. For the same molecule, the solubility (mole fraction) (in methanol, 268.35 K) was 0.013, the solubility (mole fraction) (in methanol, 273.15 K) was 0.0156 and the solubility (mole fraction) (in methanol, 278.15 K) was 0.0179. It also gave a solubility (mole fraction) (in methanol, 283.21 K) of 0.0224, a solubility (mole fraction) (in methanol, 288.15 K) of 0.0281 and a solubility (mole fraction) (in methanol, 293.05 K) of 0.0405. It also gave a solubility (mole fraction) (in methanol, 298.15 K) of 0.0485, a solubility (mole fraction) (in methanol, 303.15 K) of 0.0596 and a solubility (mole fraction) (in methanol, 308.35 K) of 0.077.

Reference: BigSolDB 2.1
